# Legend:
# [1] = Physical properties: stability of the complex; format: physicochemical; details: solid, when well-dried
# [2] = Physical properties: solubility of the complex; format: physicochemical
# Source text: Solubility: the complex is insoluble in non-polar solvents, e.g. benzene, carbon tetrachloride, etc., and insoluble in polar solvents: water, methanol, ethanol, acetone, but soluble in these solvents upon heating in inert atmosphere, to prevent oxidation.
# rats [3] = assay: Toxicity of the complex (LD50, mortality within 24 hrs); format: in vivo
# Description: Seventy two rats (250+/−2.0 g b.wt) were randomly located into 12 groups of 6 rats each.
# Mortality in each group were recorded within 24 hrs.
# rats [4] = assay: Bioavailability studies on rats (liver and kidney functions, blood picture, lipid profile); format: in vivo
# Source text: The study on rats included five groups, group 1 control, 2 receiving cu, group.2 pyrazinic, group 3 complex with large dose, & group 5 receiving complex with small dose.
# [5] = system: muscle weakness (muscle dystrophies, post stroke weakness); assay: Clinical trials for treatment of weakness of muscles; format: in vivo, human
# Source text: The complex used in treatment of muscle weakness for different underlying causes (muscle dystrophies post stroke weakness). […] When the patient reaches the optimum dose, onset of improvement in muscle power is observed within hours of drug intake.
# dilated Cardiomyopathy = assay: Clinical trials in cardiomyopathy; format: in vivo, human; details: clinically and in ECHO cardiographic measurements
# Source text: Improvement is shown both clinically and in the ECHO cardiographic measurements.
# [6] = system: male infertility (sperm count, motility); assay: Male infertility study, 20 patients; format: in vivo, human
# fatigue = assay: Clinical trials for treatment of fatigue in humans; format: in vivo
# [7] = system: stem cell differentiation; assay: In vivo stem cell, CD4 and CD8 counts before and during medication; details: before and at regular intervals of medication
# Source text: We hypothesized that the drug may have a role in stimulating the stem cells present in the various organs to differentiate. […] In vivo we measured the stem cell count together with CD8 and CD4 cells before, and at regular intervals of medication.
compound,measurement,setting,value
[CuCI (pyrazinic acid)2].2H2O [complex],Stability,[1],sufficiently stable when well-dried
same,Solubility in non-polar solvents,"[2]; e.g. benzene, carbon tetrachloride",insoluble
same,Solubility in polar solvents upon heating,[2]; upon heating in inert atmosphere,soluble
same,Solubility in polar solvents,"[2]; water, methanol, ethanol, acetone",insoluble
same,LD50 (intrapperitoneally),rats [3]; intraperitoneal,128 mg/kg
same,LD50 (oral),rats [3]; oral,1104.17 mg/kg
same,Lipid profile,rats [4],didn't show significant difference
same,liver and kidney functions versus control,rats [4],no significant difference
same,lymphocytic count (complete blood picture),"rats [4]; large and small dose groups, not exceeding the normal range",increase of lymphocytic count
same,Clinical improvement in DMS patients,"[5]; affected by age, weight and degree of dystrophy",dose dependant
same,onset of improvement in muscle power,"[5]; at optimum dose, after drug intake",within hours
same,"cases improved, dilated cardiomyopathy due to other causes",dilated Cardiomyopathy,80%
same,improvement of dilated Cardiomyopathy secondary to Duchenne muscle dystrophy,dilated Cardiomyopathy,improved all cases
same,sperm motility,[6]; all cases,significant improvement of motility
same,azospermic patients who got healthy babies,[6]; among the responders,two of them got healthy babies
same,oligospermia cases who got healthy babies,"[6]; human, in vivo",four cases got also healthy babies
same,sperm count in azospermic patients after treatment,"[6]; responders, within 6 weeks of treatment",1.5-3 millions/hpf
same,sperm count in Oligospermia,[6]; within 1 month of treatment,doubling of the count
same,azospermic patients whose count increased,[6]; within 6 weeks of treatment,seven out of nine
same,muscle pain,fatigue; all types of fatigue,relieved the muscle pain
same,physical activity and productivity,fatigue; all types of fatigue,increased the physical activity and productivity
same,"agonizing fatigue in Parkinsonism, myositis, disseminated sclerosis","fatigue; human, in vivo",improves markedly
same,CD4/CD8,[7],no disturbance
same,CD4 and CD8 number,[7],increase
same,stem cell count,[7],significant decrease
"O=C(O)c1cnccn1 [pyrazinic, pyrazinic acid, reference compound]",Lipid profile,rats [4],didn't show significant difference
same,liver and kidney functions versus control,rats [4],no significant difference
